Assay results taken from ChEMBL document CHEMBL1152560, “Substituted 2-arylbenzothiazoles as kinase inhibitors: hit-to-lead optimization” (Bioorg Med Chem, 2009).

Experiments:
[1] = biological target: Rho-associated protein kinase 2 (Homo sapiens) (UniProt O75116); experiment: Residual activity of ROCK2 at 10 uM by microplate scintillation counting
[2] = biological target: Casein kinase II subunit alpha' (Homo sapiens) (UniProt P19784); experiment: Residual activity of CK2alpha2 at 1 uM by microplate scintillation counting
[3] = biological target: Serine/threonine-protein kinase PLK1 (Homo sapiens) (UniProt P53350); experiment: Residual activity of PLK1 at 1 uM by microplate scintillation counting
[4] = tested on: Tyrosine-protein kinase ABL1 (Homo sapiens), P00519 [T315I]; experiment: Residual activity of ABL1 T315I mutant at 1 uM by microplate scintillation counting
[5] = biological target: Serine/threonine-protein kinase MRCK beta (Homo sapiens) (UniProt Q9Y5S2); experiment: Residual activity of CDC42BPB at 0.1 uM by microplate scintillation counting
Sequence of Serine/threonine-protein kinase MRCK beta (Homo sapiens) (Q9Y5S2 whole entry): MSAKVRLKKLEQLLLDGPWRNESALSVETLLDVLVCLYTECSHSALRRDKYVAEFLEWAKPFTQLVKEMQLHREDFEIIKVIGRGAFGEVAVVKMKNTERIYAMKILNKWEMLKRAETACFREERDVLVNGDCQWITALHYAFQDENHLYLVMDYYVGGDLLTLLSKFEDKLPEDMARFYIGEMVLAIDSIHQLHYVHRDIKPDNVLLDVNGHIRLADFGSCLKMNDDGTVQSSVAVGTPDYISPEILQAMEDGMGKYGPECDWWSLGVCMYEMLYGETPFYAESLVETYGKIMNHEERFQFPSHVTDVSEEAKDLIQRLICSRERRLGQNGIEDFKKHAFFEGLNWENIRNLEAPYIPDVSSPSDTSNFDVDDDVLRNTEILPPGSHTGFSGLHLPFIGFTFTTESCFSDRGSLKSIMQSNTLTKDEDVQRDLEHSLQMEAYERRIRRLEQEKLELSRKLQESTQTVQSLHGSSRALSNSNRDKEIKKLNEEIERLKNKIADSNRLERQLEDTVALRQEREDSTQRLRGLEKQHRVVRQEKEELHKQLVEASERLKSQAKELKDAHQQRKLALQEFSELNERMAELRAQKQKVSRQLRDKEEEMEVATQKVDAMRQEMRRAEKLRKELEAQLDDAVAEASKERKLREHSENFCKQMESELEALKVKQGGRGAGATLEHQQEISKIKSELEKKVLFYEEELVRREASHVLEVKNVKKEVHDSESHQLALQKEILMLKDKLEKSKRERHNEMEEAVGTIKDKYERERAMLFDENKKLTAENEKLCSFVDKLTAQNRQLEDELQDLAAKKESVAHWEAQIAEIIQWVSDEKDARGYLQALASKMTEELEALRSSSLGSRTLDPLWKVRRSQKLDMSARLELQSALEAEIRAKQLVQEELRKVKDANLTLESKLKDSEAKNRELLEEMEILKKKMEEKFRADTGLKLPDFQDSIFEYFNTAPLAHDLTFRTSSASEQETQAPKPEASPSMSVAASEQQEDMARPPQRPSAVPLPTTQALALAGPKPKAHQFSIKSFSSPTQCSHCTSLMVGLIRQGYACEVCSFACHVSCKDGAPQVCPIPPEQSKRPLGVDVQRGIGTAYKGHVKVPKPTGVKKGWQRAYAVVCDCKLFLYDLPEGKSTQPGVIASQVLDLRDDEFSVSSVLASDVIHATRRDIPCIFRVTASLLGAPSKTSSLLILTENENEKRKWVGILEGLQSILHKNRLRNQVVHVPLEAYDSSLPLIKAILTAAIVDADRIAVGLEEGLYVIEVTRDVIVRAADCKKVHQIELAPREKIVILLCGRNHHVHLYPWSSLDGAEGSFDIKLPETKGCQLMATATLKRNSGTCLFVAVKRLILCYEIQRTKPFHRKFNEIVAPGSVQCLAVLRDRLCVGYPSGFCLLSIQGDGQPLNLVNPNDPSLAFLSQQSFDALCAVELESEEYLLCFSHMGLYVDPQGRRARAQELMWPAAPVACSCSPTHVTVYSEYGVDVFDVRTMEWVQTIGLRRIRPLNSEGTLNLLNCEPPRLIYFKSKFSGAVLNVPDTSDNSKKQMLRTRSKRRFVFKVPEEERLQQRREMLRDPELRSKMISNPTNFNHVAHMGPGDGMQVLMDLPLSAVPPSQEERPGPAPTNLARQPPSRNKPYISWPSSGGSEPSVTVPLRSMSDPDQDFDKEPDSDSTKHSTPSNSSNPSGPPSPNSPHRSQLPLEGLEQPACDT

[6] = biological target: Macrophage-stimulating protein receptor (Homo sapiens) (UniProt Q04912); experiment: Residual activity of RON at 0.1 uM by microplate scintillation counting
Sequence of Macrophage-stimulating protein receptor (Homo sapiens) (Q04912 25-304 limits assumed): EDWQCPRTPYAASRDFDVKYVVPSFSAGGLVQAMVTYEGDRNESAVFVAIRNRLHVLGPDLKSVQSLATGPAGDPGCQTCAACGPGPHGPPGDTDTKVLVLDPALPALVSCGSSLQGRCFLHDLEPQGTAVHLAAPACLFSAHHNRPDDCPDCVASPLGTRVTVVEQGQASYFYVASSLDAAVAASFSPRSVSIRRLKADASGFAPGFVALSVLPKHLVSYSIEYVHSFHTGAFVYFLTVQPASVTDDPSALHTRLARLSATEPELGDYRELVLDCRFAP
Sequence of Macrophage-stimulating protein receptor (Homo sapiens) (Q04912 310-1400 limits assumed): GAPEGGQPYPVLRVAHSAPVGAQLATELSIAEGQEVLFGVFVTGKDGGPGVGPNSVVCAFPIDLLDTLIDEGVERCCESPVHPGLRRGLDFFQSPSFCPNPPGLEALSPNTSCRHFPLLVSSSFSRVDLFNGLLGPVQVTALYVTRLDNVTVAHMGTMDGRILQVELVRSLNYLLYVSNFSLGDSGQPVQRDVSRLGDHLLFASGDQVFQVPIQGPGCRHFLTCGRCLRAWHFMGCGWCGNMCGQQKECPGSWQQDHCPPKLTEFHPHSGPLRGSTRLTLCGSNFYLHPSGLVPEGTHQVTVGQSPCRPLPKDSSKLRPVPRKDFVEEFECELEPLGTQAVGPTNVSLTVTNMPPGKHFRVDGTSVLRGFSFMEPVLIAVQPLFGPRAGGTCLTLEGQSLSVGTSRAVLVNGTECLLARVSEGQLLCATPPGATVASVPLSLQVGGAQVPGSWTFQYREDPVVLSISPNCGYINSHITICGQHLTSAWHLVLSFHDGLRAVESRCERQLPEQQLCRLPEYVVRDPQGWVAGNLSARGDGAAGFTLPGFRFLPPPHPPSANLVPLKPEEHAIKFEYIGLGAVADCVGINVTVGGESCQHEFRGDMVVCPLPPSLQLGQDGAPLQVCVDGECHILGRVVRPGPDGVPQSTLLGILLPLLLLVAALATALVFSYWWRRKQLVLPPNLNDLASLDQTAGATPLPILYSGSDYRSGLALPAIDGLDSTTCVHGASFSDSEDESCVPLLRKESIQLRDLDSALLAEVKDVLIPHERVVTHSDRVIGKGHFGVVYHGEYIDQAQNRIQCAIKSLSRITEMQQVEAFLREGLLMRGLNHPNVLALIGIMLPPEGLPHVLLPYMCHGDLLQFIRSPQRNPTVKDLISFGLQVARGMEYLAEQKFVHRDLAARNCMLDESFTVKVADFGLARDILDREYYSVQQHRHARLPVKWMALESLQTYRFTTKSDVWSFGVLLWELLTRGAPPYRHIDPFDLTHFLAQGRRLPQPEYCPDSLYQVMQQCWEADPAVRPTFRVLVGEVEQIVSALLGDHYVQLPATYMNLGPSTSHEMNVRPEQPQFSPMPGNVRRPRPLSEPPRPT

[7] = biological target: Serine/threonine-protein kinase Nek7 (Homo sapiens) (UniProt Q8TDX7); experiment: Residual activity of NEK7 at 10 uM by microplate scintillation counting
Sequence of Serine/threonine-protein kinase Nek7 (Homo sapiens) (Q8TDX7 whole entry, looked up): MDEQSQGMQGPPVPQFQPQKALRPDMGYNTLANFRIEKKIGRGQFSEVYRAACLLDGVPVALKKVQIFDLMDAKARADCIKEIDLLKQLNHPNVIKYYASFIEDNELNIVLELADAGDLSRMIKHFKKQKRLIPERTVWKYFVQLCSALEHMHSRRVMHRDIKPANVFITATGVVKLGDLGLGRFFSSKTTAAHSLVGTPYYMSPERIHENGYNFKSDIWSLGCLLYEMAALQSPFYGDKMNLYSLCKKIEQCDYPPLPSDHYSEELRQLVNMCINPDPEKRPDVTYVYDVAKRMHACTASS

[8] = biological target: Tyrosine-protein kinase Blk (Homo sapiens) (UniProt P51451); experiment: Residual activity of BLK at 10 uM by microplate scintillation counting
[9] = biological target: RAC-beta serine/threonine-protein kinase (Homo sapiens) (UniProt P31751); experiment: Residual activity of AKT2 at 10 uM by microplate scintillation counting
[10] = biological target: T1, Interleukin-1 receptor-associated kinase 4 (Homo sapiens) (UniProt Q9NWZ3); experiment: Residual activity of IRAK4 at 1 uM by microplate scintillation counting
T1 sequence (whole entry): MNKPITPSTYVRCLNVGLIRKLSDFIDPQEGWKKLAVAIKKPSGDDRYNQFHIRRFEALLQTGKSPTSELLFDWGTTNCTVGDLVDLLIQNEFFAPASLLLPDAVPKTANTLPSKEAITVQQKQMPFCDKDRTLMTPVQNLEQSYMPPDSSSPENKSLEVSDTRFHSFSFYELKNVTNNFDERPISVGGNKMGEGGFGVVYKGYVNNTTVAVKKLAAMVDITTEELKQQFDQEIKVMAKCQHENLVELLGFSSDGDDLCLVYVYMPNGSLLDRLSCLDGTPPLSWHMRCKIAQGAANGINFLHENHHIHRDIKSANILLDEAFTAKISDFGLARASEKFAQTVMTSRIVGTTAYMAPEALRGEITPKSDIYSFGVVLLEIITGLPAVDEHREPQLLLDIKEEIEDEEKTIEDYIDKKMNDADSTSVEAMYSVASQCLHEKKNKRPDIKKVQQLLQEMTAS

[11] = biological target: T2, Eukaryotic translation initiation factor 2-alpha kinase 3 (Homo sapiens) (UniProt Q9NZJ5); experiment: Residual activity of EIF2AK3 at 0.1 uM by microplate scintillation counting
T2 sequence (whole entry): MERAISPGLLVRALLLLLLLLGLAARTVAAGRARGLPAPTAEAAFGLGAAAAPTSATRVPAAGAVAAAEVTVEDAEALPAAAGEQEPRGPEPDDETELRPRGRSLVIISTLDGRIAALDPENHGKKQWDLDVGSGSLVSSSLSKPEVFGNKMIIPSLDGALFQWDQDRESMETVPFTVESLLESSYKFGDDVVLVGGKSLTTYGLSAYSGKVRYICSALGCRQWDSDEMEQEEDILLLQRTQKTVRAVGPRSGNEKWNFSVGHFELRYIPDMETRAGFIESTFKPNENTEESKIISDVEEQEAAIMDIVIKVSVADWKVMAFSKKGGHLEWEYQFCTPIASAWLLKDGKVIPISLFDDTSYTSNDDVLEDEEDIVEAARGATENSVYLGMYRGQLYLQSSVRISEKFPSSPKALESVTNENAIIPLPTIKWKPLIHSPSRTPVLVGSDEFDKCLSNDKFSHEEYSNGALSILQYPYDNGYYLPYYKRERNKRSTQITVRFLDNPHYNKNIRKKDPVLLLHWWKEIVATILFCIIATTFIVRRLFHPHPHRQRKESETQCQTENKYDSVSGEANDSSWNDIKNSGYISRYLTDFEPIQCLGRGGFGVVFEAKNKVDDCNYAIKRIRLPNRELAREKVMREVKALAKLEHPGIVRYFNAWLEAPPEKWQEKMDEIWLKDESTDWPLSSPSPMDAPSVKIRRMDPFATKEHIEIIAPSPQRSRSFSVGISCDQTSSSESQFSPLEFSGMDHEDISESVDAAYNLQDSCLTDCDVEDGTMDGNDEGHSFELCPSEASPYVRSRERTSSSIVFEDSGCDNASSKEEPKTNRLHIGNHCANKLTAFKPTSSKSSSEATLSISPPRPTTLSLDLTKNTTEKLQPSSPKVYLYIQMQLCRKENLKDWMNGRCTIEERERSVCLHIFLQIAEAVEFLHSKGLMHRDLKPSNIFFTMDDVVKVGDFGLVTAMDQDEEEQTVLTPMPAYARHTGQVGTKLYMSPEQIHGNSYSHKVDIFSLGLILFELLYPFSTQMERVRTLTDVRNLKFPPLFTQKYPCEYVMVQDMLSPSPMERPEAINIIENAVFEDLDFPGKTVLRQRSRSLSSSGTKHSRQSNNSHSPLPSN

[12] = biological target: T3, Serine/threonine-protein kinase Chk1 (Homo sapiens) (UniProt O14757); experiment: Residual activity of CHK1 at 1 uM by microplate scintillation counting
T3 sequence (whole entry): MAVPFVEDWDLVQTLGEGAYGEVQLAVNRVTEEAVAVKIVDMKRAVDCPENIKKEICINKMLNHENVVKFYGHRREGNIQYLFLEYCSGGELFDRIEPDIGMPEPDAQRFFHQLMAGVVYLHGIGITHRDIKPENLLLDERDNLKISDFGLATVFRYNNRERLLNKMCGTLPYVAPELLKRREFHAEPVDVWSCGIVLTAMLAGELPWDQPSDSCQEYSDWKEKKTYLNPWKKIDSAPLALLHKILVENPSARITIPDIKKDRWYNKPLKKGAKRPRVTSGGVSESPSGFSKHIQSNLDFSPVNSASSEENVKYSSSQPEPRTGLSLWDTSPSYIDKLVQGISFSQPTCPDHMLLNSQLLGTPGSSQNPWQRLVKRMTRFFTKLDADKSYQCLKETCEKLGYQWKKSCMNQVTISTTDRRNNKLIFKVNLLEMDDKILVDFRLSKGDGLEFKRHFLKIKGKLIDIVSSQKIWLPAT

[13] = biological target: Casein kinase I isoform gamma-2 (Homo sapiens) (UniProt P78368); experiment: Residual activity of CK1gamma2 at 0.1 uM by microplate scintillation counting

Sequence of Rho-associated protein kinase 2 (Homo sapiens) (O75116 whole entry, looked up): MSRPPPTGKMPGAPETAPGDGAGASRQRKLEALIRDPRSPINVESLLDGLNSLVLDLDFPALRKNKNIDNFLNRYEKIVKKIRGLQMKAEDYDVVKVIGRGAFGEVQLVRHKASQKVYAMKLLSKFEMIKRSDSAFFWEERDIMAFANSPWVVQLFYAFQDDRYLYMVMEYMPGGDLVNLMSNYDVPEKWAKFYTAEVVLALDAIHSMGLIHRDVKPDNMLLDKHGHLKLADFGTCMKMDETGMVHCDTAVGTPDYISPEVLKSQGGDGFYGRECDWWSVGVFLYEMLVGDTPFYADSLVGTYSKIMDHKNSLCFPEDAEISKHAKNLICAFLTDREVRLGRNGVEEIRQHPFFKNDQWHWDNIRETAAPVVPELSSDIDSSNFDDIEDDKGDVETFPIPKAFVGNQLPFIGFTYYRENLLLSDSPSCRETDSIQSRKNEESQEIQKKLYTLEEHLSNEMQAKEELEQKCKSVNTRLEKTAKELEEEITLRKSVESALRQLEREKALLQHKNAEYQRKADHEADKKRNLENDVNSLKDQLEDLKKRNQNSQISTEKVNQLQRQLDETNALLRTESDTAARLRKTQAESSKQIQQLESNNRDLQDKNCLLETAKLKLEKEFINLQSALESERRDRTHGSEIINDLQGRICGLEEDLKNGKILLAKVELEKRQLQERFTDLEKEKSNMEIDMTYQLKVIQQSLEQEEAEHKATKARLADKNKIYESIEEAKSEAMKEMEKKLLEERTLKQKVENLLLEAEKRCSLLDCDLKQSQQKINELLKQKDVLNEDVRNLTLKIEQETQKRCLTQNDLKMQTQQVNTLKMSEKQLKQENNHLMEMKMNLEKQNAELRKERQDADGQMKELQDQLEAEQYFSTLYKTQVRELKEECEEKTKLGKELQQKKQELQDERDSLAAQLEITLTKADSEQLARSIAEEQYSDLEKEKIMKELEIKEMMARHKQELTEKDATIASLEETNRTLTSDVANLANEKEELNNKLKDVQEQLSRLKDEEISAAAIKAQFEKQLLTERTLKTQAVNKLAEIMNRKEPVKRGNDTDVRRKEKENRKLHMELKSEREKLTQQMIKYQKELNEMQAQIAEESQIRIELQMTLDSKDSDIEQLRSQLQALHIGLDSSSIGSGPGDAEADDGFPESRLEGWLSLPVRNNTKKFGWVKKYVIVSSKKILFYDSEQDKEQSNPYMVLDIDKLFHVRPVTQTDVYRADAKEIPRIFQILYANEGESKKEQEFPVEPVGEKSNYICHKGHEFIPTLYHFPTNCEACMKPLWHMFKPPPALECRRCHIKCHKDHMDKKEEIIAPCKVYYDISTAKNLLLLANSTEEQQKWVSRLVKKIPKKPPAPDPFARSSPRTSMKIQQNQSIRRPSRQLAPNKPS

| Compound | residual activity [1] [%] | residual activity [2] [%] | residual activity [3] [%] | residual activity [4] [%] | residual activity [5] [%] | residual activity [6] [%] | residual activity [7] [%] | residual activity [8] [%] | residual activity [9] [%] | residual activity [10] [%] | residual activity [11] [%] | residual activity [12] [%] | residual activity [13] [%] |
| --- | --- | --- | --- | --- | --- | --- | --- | --- | --- | --- | --- | --- | --- |
| COc1cc2c(Oc3ccc(-c4nc5ccccc5s4)cc3F)ncnc2cc1OCCCN1CCN(C)CC1 | 47 | 89 | 97 | 96 | 83 | 72 | 239 | 10 | 167 | 97 | 101 | 102 | 90 |
| COc1cc2c(Oc3ccc(-c4nc5ccccc5s4)cc3)ncnc2cc1OCCCN1CCCC1 | 84 | 88 | 88 | 95 | 87 | 90 | 224 | 33 | 119 | 90 | 102 | 83 | 93 |
| COc1cc2c(Oc3ccc(-c4nc5ccccc5s4)cc3)ncnc2cc1OCCCN1CCN(C)CC1 | 54 | 96 | 100 | 103 | 120 | 74 | 254 | 34 | 175 | 91 | 90 | 103 | 93 |
